Reference: patent publication US10336762B2 (priority 2017, dated 2019)
Counter-ions that a name gives are not always drawn. Like-named read-outs stand apart in the source and are kept apart here.

Tests used:
[1] = test system: TNFα; assay: cells; type: cell-based, human; conditions: Homo sapiens, Monocyte, read-out: EC50 TNF
[2] = target: IRAK4 enzyme (Homo sapiens (Human), UniProt Q9NWZ3); assay: biochemical; type: biochemical
[3] = LPS-stimulated human monocytes, TNFα content
[4] = IRAK4 enzyme, TR-FRET, 500 μM ATP

Chain of IRAK4 enzyme (Q9NWZ3 whole entry): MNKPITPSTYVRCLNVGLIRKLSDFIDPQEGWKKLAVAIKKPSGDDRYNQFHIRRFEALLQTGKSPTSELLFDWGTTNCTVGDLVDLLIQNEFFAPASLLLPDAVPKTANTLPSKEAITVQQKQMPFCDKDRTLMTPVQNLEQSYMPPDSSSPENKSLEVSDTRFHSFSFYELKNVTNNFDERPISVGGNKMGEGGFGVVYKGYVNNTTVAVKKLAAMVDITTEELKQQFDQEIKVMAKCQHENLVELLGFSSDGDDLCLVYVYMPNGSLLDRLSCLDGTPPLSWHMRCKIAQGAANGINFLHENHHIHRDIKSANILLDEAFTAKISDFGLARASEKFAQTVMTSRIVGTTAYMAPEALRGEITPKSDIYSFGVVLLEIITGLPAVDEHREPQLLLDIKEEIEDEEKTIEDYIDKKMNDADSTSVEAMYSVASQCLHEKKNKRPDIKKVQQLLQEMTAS

Compound | EC50 [1, 3] [nM] | IC50 [2, 4] [nM] | EC50 [1] [nM] | IC50 [2] [nM]
COC(=O)N[C@H]1CC[C@H](Nc2cc(-c3ccc4cc(C#N)cnn34)ncc2C(=O)NC[C@@H](F)C(C)(C)OC(C)=O)CC1 [Example 293, (R)-4-(6-(3-cyanopyrrolo[1,2-b]pyridazin-7-yl)-4-(((1r,4R)-4-((methoxycarbonyl)amino)cyclohexyl)amino)nicotinamido)-3-fluoro-2-methylbutan-2-yl acetate] | 49 | 1 | – | –
CC(C)(O)[C@H](F)CNC(=O)c1cnc(-c2ccc3cc(C#N)cnn23)cc1N[C@H]1CC[C@H](NC(=O)C2CCOCC2)CC1 [Example 294, 6-(3-cyanopyrrolo[1,2-b]pyridazin-7-yl)-N-((R)-2-fluoro-3-hydroxy-3-methylbutyl)-4-(((1r,4R)-4-(tetrahydro-2H-pyran-4-carboxamido)cyclohexyl)amino)nicotinamide] | 735 | 3 | – | –
CC(C)(O)[C@H](F)CNC(=O)c1cnc(-c2ccc3cc(C#N)cnn23)cc1NC12CCC(NC(=O)C(F)(F)F)(CC1)CC2 [Example 295, (R)-6-(3-cyanopyrrolo[1,2-b]pyridazin-7-yl)-N-(2-fluoro-3-hydroxy-3-methyl-butyl)-4-((4-(2,2,2-trifluoro-acetamido)bicyclo[2.2.2]octan-1-yl)amino) nicotinamide] | 38 | 1 | – | –
CC(C)(C)C(=O)N[C@H]1CC[C@H](Nc2cc(-c3ccc4cc(C#N)cnn34)ncc2C(=O)NC[C@@H](F)C(C)(C)O)CC1 [Example 296, 6-(3-cyanopyrrolo[1,2-b]pyridazin-7-yl)-N-((R)-2-fluoro-3-hydroxy-3-methylbutyl)-4-(((1r,4R)-4-pivalamidocyclohexyl)amino)nicotinamide] | 391 | 3 | – | –
CC(C)(O)[C@H](F)CNC(=O)c1cnc(-c2ccc3cc(C#N)cnn23)cc1N[C@H]1CC[C@H](NC(=O)C2CC2)CC1 [Example 297, 6-(3-cyanopyrrolo[1,2-b]pyridazin-7-yl)-4-(((1r,4R)-4-(cyclopropanecarbox-amido)cyclohexyl)amino)-N-((R)-2-fluoro-3-hydroxy-3-methylbutyl) nicotinamide] | 80 | 1 | – | –
CC(C)C(=O)N[C@H]1CC[C@H](Nc2cc(-c3ccc4cc(C#N)cnn34)ncc2C(=O)NC[C@@H](F)C(C)(C)O)CC1 [Example 298, 6-(3-cyanopyrrolo[1,2-b]pyridazin-7-yl)-N-((R)-2-fluoro-3-hydroxy-3-methylbutyl)-4-(((1r,4R)-4-isobutyramidocyclohexyl)amino)nicotinamide] | 214 | 2 | – | –
CCC(=O)N[C@H]1CC[C@H](Nc2cc(-c3ccc4cc(C#N)cnn34)ncc2C(=O)NC[C@@H](F)C(C)(C)O)CC1 [Example 299, 6-(3-cyanopyrrolo[1,2-b]pyridazin-7-yl)-N-((R)-2-fluoro-3-hydroxy-3-methyl-butyl)-4-(((1r,4R)-4-propionamidocyclohexyl)amino)nicotinamide] | 128 | 1 | – | –
COC(=O)NC1CCC(NC(=O)c2cnc(-c3ccc4cc(C#N)cnn34)cc2N[C@H]2CC[C@H](NC(=O)OC)CC2)CC1 (stereo partly drawn) [Example 300, methyl ((1R,4r)-4-(6-(3-cyanopyrrolo[1,2-b]pyridazin-7-yl)-4-(((1r,4R)-4-((methoxycarbonyl)amino)cyclohexyl)amino)nicotinamido)cyclohexyl) carbamate] | 75 | 1 | – | –
CC(=O)NC1CCC(NC(=O)c2cnc(-c3ccc4cc(C#N)cnn34)cc2N[C@H]2CC[C@H](NC(C)=O)CC2)CC1 (stereo partly drawn) [Example 301, N-((1s,4S)-4-acetamidocyclohexyl)-4-(((1r,4R)-4-acetamidocyclohexyl)amino)-6-(3-cyanopyrrolo[1,2-b]pyridazin-7-yl)nicotinamide] | 1410 | 2 | – | –
CC(C)(O)[C@H](F)CNC(=O)c1cnc(-c2ccc3cc(C#N)cnn23)cc1NC1CC1CO (stereo partly drawn) [Example 303, 6-(3-cyanopyrrolo[1,2-b]pyridazin-7-yl)-N-((R)-2-fluoro-3-hydroxy-3-methylbutyl)-4-((2-(hydroxymethyl)cyclopropyl)amino)nicotinamide] | 26 | < 1 | – | –
CC(C)(C)OC(=O)NC12CCC(Nc3cc(-c4ccc5cc(C#N)cnn45)ncc3C(=O)NC[C@@H](F)C(C)(C)O)(CC1)CC2 [Example 304, (R)-tert-butyl (4-((2-(3-cyanopyrrolo[1,2-b]pyridazin-7-yl)-5-((2-fluoro-3-hydroxy-3-methylbutyl)carbamoyl)pyridin-4yl)amino)bicyclo[2.2.2]octan-1-yl)carbamate] | 677 | 4 | – | –
CC(C)(C)OC(=O)N[C@H]1CC[C@H](Nc2cc(-c3ccc4cc(C#N)cnn34)ncc2C(=O)NC[C@@H](F)C(C)(C)O)CC1 [Example 305, tert-butyl ((1R,4r)-4-((2-(3-cyanopyrrolo[1,2-b]pyridazin-7-yl-5-(((R)-2-fluoro-3-hydroxy-3-methylbutyl)carbamoyl)pyridin-4-yl)amino)cyclohexyl) carbamate] | 337 | 1 | – | –
CC(=O)N[C@@H]1CC[C@@H](Nc2cc(-c3ccc4cc(C#N)cnn34)ncc2C(=O)NC[C@@H](F)C(C)(C)O)C1 [Example 306, 4-(((1R,3R)-3-acetamidocyclopentyl)amino)-6-(3-cyano-pyrrolo[1,2-b]pyridazin-7-yl)-N-((R)-2-fluoro-3-hydroxy-3-methylbutyl) nicotinamide] | 453 | 3 | – | –
CC(=O)N[C@H]1CC[C@@H](Nc2cc(-c3ccc4cc(C#N)cnn34)ncc2C(=O)NC[C@@H](F)C(C)(C)O)C1 [Example 307, 4-(((1R,3S)-3-acetamidocyclopentyl)amino)-6-(3-cyano-pyrrolo[1,2-b]pyridazin-7-yl)-N-((R)-2-fluoro-3-hydroxy-3-methylbutyl) nicotinamide] | 320 | 2 | – | –
CC(C)(O)[C@H](F)CNC(=O)c1cnc(-c2ccc3cc(C#N)cnn23)cc1N[C@@H]1CC[C@@H](N)C1 [Example 308, 4-(((1R,3R)-3-aminocyclopentyl)amino)-6-(3-cyano-pyrrolo[1,2-b]pyridazin-7-yl)-N-((R)-2-fluoro-3-hydroxy-3-methylbutyl) nicotinamide] | 46 | < 1 | – | –
CC(C)(O)[C@H](F)CNC(=O)c1cnc(-c2ccc3cc(C#N)cnn23)cc1N[C@@H]1CC[C@H](N)C1 [Example 309, 4-(((1R,3S)-3-aminocyclopentyl)amino)-6-(3-cyanopyrrolo[1,2-b]pyridazin-7-yl)-N-((R)-2-fluoro-3-hydroxy-3-methylbutyl)nicotinamide] | 623 | 2 | – | –
CC(C)(O)[C@H](F)CNC(=O)c1cnc(-c2ccc3cc(C#N)cnn23)cc1N[C@H]1CC[C@@H](N)C1 [Example 310, 4-(((1S,3R)-3-aminocyclopentyl)amino)-6-(3-cyanopyrrolo[1,2-b]pyridazin-7-yl)-N-((R)-2-fluoro-3-hydroxy-3-methylbutyl)nicotinamide] | 362 | 2 | – | –
COC(=O)NC12CCC(Nc3cc(-c4ccc5cc(C#N)cnn45)ncc3C(=O)NC[C@@H](F)C(C)(C)O)(CC1)CC2 [Example 311, (R)-methyl (4-((2-(3-cyano-pyrrolo[1,2-b]pyridazin-7-yl)-5-((2-fluoro-3-hydroxy-3-methylbutyl)carbamoyl)pyridin-4-yl)amino)bicyclo[2.2.2]octan-1-yl)carbamate] | 15 | < 1 | – | –
CC(=O)N[C@@H]1CC[C@H](Nc2cc(-c3ccc4cc(C#N)cnn34)ncc2C(=O)NC[C@@H](F)C(C)(C)O)C1 [Example 312, 4-(((1S,3R)-3-acetamidocyclopentyl)amino)-6-(3-cyano-pyrrolo[1,2-b]pyridazin-7-yl)-N-((R)-2-fluoro-3-hydroxy-3-methylbutyl) nicotinamide] | 198 | 2 | – | –
CC(C)(O)[C@H](F)CNC(=O)c1cnc(-c2ccc3cc(C#N)cnn23)cc1N[C@H]1CC[C@H](NC(=O)C(F)(F)F)CC1 [Example 313, 6-(3-cyanopyrrolo[1,2-b]pyridazin-7-yl)-N-((R)-2-fluoro-3-hydroxy-3-methylbutyl)-4-(((1r,4R)-4-(2,2,2-trifluoroacetamido)cyclohexyl)amino) nicotinamide] | 37 | 1 | – | –
COC(=O)N[C@H]1CC[C@H](Nc2cc(-c3ccc4cc(C#N)cnn34)ncc2C(=O)NC[C@@H](F)C(C)(C)O)CC1 [Example 314, methyl ((1R,4r)-4-((2-(3-cyanopyrrolo[1,2-b]pyridazin-7-yl)-5-(((R)-2-fluoro-3-hydroxy-3-methylbutyl)carbamoyl)pyridin-4-yl)amino)cyclo-hexyl)carbamate] | 20 | < 1 | – | –
CC(C)(O)[C@H](F)CNC(=O)c1cnc(-c2ccc3cc(C#N)cnn23)cc1N[C@H]1CC[C@H](NS(C)(=O)=O)CC1 [Example 315, 6-(3-cyanopyrrolo[1,2-b]pyridazin-7-yl)-N-((R)-2-fluoro-3-hydroxy-3-methylbutyl)-4-(((1r,4R)-4-(methylsulfonamido)cyclohexyl)amino)nicotinamide] | 59 | < 1 | – | –
CC(C)(O)[C@H](F)CNC(=O)c1cnc(-c2ccc3cc(C#N)cnn23)cc1N[C@H]1CC[C@H](N)CC1 [Example 316, 4-(((1r,4R)-4-aminocyclohexyl)amino)-6-(3-cyanopyrrolo[1,2-b]pyridazin-7-yl)-N-((R)-2-fluoro-3-hydroxy-3-methylbutyl)nicotinamide hydrochloride] | – | – | 136 | < 1
CC(=O)NC12CCC(Nc3cc(-c4ccc5cc(C#N)cnn45)ncc3C(=O)NC[C@@H](F)C(C)(C)O)(CC1)CC2 [Example 317, (R)-4-((4-acetamido-bicyclo[2.2.2]octan-1-yl)amino)-6-(3-cyano-pyrrolo[1,2-b]pyridazin-7-yl)-N-(2-fluoro-3-hydroxy-3-methylbutyl) nicotinamide] | 11 | < 1 | – | –
